Counter-ions that a name gives are not always drawn.
What was measured:
[1] = biological target: T1, c-Myc/Max/Ebox DNA (Homo sapiens, UniProt P01106); assay: c-Myc/Max/Ebox DNA AlphaScreen Assay; format: binding; conditions: free c-Myc 20 nM, his6-Max 5 nM, biotinylated Ebox oligo 10 nM, 2 hour incubation
T1 construct: his6 (cleaved yes)
Procedure: Compounds of the invention were assayed for c-Myc/Max/EBox activity as described in the following protocol. Human his6-c-Myc and his6-Max were used with biotinylated DNA containing a single Ebox sequence (biotin[…]) purchased from MWG Operon. Free c-Myc was generated from his6-c-Myc through thrombin cleavage of the his6 tag. For 384-well plate assays, 10 μL of a 2× solution of free c-Myc (20 nM final), Ni^2+ coated Acceptor Beads (25 μg/ml final), and biotinylated Ebox oligo (10 nM final) were added to 384-well plates with a Biotek EL406 liquid handler. 50 nL of compounds from stock plates were added by pin transfer using a Janus Workstation (PerkinElmer), allowing the compounds to interact with c-Myc prior to c-Myc binding with Max. In the current assay, DMSO was not allowed to exceed 2% v/v of the assay. 10 μl of 2× master mix containing streptavidin-coated donor beads (25 μg/ml final) and his6-Max (5 nM) were added. AlphaScreen measurements were performed on an Envision plate reader (PerkinElmer) utilizing the manufacturer's protocol.
Both master mixes were made in room temperature assay buffer (50 mM HEPES, 150 mM NaCl, 0.2% w/v BSA, 0.02% w/v Tween20, 40 μg/ml glycogen, 500 μM DTT, pH 8.0, wherein both DTT and glycogen were added fresh). Alpha beads were added to respective master solutions. All subsequent steps were performed in low light conditions. Solution 1: 2× solution of components with final concentrations of c-Myc Ni-coated Acceptor Beads (25 μg/ml), and biotinylated Ebox oligo (10 nM). Solution 2: 2× solution of streptavidin-coated donor beads (25 μg/ml final) and his6-Max […]. Solution 1 was added to 384-well plate (AlphaPlate-384, PerkinElmer) with Biotek EL406 liquid handler and the plates were centrifuged very briefly. 50 nL of compounds from stock plates were added by pin transfer using a Janus Workstation. Solution 2 (10 μL) was added with the liquid handler. Plates were sealed with foil to block light exposure and prevent evaporation. Plates were very briefly centrifuged followed by 2 hour incubation. AlphaScreen measurements were performed on an Envision 2104 utilizing the manufacturer's protocol. Excitation was at 680 nm for donor bead release of singlet oxygen and emission was read with a bandpass filter from 520-620 nm. Glycogen: Roche Diagnostics #10901393001. Plate 1536: Perkin Elmer, 6004350. Plate 384: Perkin Elmer, 6005350. Nickel-His Alpha Beads: 6760619R. The data from this assay are summarized in Table 3 below (Myc/Max/DNA Activity).

[2] = tested on: human small lung cancer cell line H2171; assay: Cell Viability Assay (ATPlite); format: cell-based; conditions: NCI-H2171, 72 h, H2171 cells, incubated for three days, ATPlite readout
Procedure: Compounds of the invention were assayed for cell viability using the human small lung cancer cell line H2171 as described in the following protocol. Cells were counted and adjusted to 20,000 cells/mL. Using a Biotek EL406, 50 μL of cells in media were distributed into 384 well white plates from Thermo. Immediately after plating, compound in DMSO was distributed to plates. Compounds were added to plates using a 50 nL 384 well pin transfer manifold on a Janus workstation. Stocks were arrayed in 10 point dose response in DMSO stock in 384 well Greiner compound plates. After the addition of compounds, plates were incubated for three days in a 37° C. incubator. Cell viability was read out using ATPlite from Perkin Elmer. Lyophilized powder was resuspended in lysis buffer and diluted 1:2 with deionized water. 25 μL of this solution was added to each well using the Biotek liquid handler. Plates were incubated for 15 minutes at room temperature before signal was read on an Envision Plate Reader. The data from this assay are summarized in Table 3 below (H2171 activity).

T1 sequence (P01106 whole entry): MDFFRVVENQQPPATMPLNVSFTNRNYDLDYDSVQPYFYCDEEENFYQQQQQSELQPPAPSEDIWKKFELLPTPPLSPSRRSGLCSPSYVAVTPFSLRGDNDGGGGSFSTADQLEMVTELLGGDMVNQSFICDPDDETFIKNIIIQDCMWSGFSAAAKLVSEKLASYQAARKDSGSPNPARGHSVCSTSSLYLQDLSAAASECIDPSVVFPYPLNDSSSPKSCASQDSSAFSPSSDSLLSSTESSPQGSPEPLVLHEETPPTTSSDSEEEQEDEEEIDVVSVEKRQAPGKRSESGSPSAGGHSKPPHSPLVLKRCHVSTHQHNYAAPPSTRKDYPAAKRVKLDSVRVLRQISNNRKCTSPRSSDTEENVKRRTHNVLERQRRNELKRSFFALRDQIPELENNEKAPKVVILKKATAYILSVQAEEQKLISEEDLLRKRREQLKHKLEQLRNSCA

| SMILES | IC50 [1] [nM] | IC50 [2] [nM] |
| --- | --- | --- |
| CC(=O)Nc1sc2c(c1-c1nc3c(C(F)F)nccc3s1)CCNC2 [Compound 106, N-[3-[4-(difluoromethyl)thiazolo[4,5-c]pyridin-2-yl]-4,5,6,7-tetrahydrothieno[2,3-c]pyridin-2-yl]acetamide] | < 500 | < 500 |
| CC(=O)Nc1sc2c(c1-c1nc3cnccc3s1)C[C@H](C)N[C@H]2C (single isomer, unassigned) [Compound 111] | < 500 | < 500 |
| CC[C@H](C)NCCC(=O)Nc1sc2c(c1-c1nc3cnccc3s1)CCN(CC)C2 [Compound 238, (S)-3-(sec-butylamino)-N-(6-ethyl-3-(thiazolo[4,5-c]pyridin-2-yl)-4,5,6,7-tetrahydrothieno[2,3-c]pyridin-2-yl)propanamide] | < 500 | < 500 |
| COCCNCCC(=O)Nc1sc2c(c1-c1nc3cnc(C)cc3s1)CCNC2 [Compound 244] | < 500 | < 500 |
| CC(=O)Nc1sc2c(c1-c1nc3cnccc3s1)CCN(C)C2 [Compound 114, N-(6-methyl-3-(thiazolo[4,5-c]pyridin-2-yl)-4,5,6,7-tetrahydrothieno[2,3-c]pyridin-2-yl)acetamide] | 500 to 5000 | 500 to 5000 |
| CCN1Cc2sc(NC(C)=O)c(-c3nc4cnccc4s3)c2C[C@H]1C [Compound 230, (R)—N-(6-ethyl-5-methyl-3-(thiazolo[4,5-c]pyridin-2-yl)-4,5,6,7-tetrahydrothieno[2,3-c]pyridin-2-yl)acetamide] | 500 to 5000 | < 500 |
| CC(=O)Nc1sc2c(c1-c1nc3cnccc3s1)C[C@@H](C)N[C@H]2C [Compound 237] | 500 to 5000 | 500 to 5000 |
| CC[C@H](C)NCCC(=O)Nc1sc2c(c1-c1nc3c(C(F)F)nccc3s1)CCNC2 [Compound 226] | < 500 | < 500 |
| Cc1cc2sc(-c3c(NC(=O)CCNC(C)C)sc4c3CCNC4)nc2c(C)n1 [Compound 225, N-(3-(4,6-Dimethylthiazolo[4,5-c]pyridin-2-yl)-4,5,6,7-tetrahydrothieno[2,3-c]pyridin-2-yl)-3-(isopropylamino)propanamide dihydrochloride] | < 500 | < 500 |
| CC(=O)Nc1sc2c(c1-c1nc3cnccc3s1)CCC(N)C2 (stereo not drawn) [Compound 113, N-(6-amino-3-(thiazolo[4,5-c]pyridin-2-yl)-4,5,6,7-tetrahydrobenzo[b]thiophen-2-yl)acetamide] | 500 to 5000 | < 500 |
| CC[C@H](C)N(CCC(=O)Nc1sc2c(c1-c1nc3cnccc3s1)CCNC2)Cc1ccccc1 [Compound 233, (S)-3-(Benzyl(sec-butyl)amino)-N-(3-(thiazolo[4,5-c]pyridin-2-yl)-4,5,6,7-tetrahydrothieno[2,3-c]pyridin-2-yl)propanamide hydrochloride] | 5000 to 25000 | 500 to 5000 |
| COCCNCCC(=O)Nc1sc2c(c1-c1nc3c(C)nc(C)cc3s1)CCNC2 [Compound 227, N-(3-(4,6-Dimethylthiazolo[4,5-c]pyridin-2-yl)-4,5,6,7-tetrahydrothieno[2,3-c]pyridin-2-yl)-3-((2-methoxyethyl)amino)propanamide dihydrochloride] | < 500 | < 500 |
| CC(=O)Nc1sc2c(c1-c1nc3cnccc3s1)C[C@@H](C)N[C@@H]2C (single isomer, unassigned) [Compound 110] | < 500 | < 500 |
| COCCNCCC(=O)Nc1sc2c(c1-c1nc3c(C(F)F)nc(C)cc3s1)CCNC2 [Compound 245] | < 500 | < 500 |

Results, then the compound that gave them:

| IC50 [1] [nM] | IC50 [2] [nM] | SMILES |
| --- | --- | --- |
| < 500 | < 500 | CN(C)CCC(=O)Nc1sc2c(c1-c1nc3cnccc3s1)CCNC2 [Compound 219, 3-(dimethylamino)-N-(3-(thiazolo[4,5-c]pyridin-2-yl)-4,5,6,7-tetrahydrothieno[2,3-c]pyridin-2-yl)propanamide] |
| < 500 | < 500 | O=C(CCNC1CNC1)Nc1sc2c(c1-c1nc3cnccc3s1)CCNC2 [Compound 223, 3-(Azetidin-3-ylamino)-N-(3-(thiazolo[4,5-c]pyridin-2-yl)-4,5,6,7-tetrahydrothieno[2,3-c]pyridin-2-yl)propanamide] |
| < 500 | < 500 | CC[C@@H](C)NCCC(=O)Nc1sc2c(c1-c1nc3cnccc3s1)CCNC2 [Compound 217, (R)-3-(sec-butylamino)-N-(3-(thiazolo[4,5-c]pyridin-2-yl)-4,5,6,7-tetrahydrothieno[2,3-c]pyridin-2-yl)propanamide] |
| < 500 | < 500 | CC[C@H](C)NCCC(=O)Nc1sc2c(c1-c1nc3cnccc3s1)CCN[C@H]2C [Compound 234, 3-(((S)-sec-butyl)amino)-N—((S)-7-methyl-3-(thiazolo[4,5-c]pyridin-2-yl)-4,5,6,7-tetrahydrothieno[2,3-c]pyridin-2-yl)propanamide] |
| < 500 | < 500 | CC(C)NCCC(=O)Nc1sc2c(c1-c1nc3ncccc3s1)CCNC2 [Compound 220, 3-(isopropylamino)-N-(3-(thiazolo[4,5-b]pyridin-2-yl)-4,5,6,7-tetrahydrothieno[2,3-c]pyridin-2-yl)propanamide dihydrochloride] |
| < 500 | 500 to 5000 | O=C(CCN1CCCC12CNC2)Nc1sc2c(c1-c1nc3cnccc3s1)CCNC2 [Compound 206] |
| < 500 | 500 to 5000 | COCC(NCCC(=O)Nc1sc2c(c1-c1nc3cnccc3s1)CCNC2)C(C)C (stereo not drawn) [Compound 134] |
| < 500 | 500 to 5000 | Cn1cncc1CNCCC(=O)Nc1sc2c(c1-c1nc3cnccc3s1)CCNC2 [Compound 203] |
| < 500 | < 500 | O=C(CCNCCc1cccnc1)Nc1sc2c(c1-c1nc3cnccc3s1)CCNC2 [Compound 218, 3-((2-(pyridin-3-yl)ethyl)amino)-N-(3-(thiazolo[4,5-c]pyridin-2-yl)-4,5,6,7-tetrahydrothieno[2,3-c]pyridin-2-yl)propanamide] |
| < 500 | < 500 | CN(CCCn1ccnc1)CCC(=O)Nc1sc2c(c1-c1nc3cnccc3s1)CCNC2 [Compound 190] |
| 500 to 5000 | < 500 | C[C@@H]1NCCc2c1sc(NC(=O)CCN[C@@H]1C[C@H]3CNC[C@H]3C1)c2-c1nc2cnccc2s1 [Compound 246, N—((S)-7-methyl-3-(thiazolo[4,5-c]pyridin-2-yl)-4,5,6,7-tetrahydrothieno[2,3-c]pyridin-2-yl)-3-(((3aR,5s,6aS)-octahydrocyclopenta[c]pyrrol-5-yl)amino)propanamide] |
| < 500 | < 500 | O=C(CCN[C@H]1CC[C@H](O)C1)Nc1sc2c(c1-c1nc3cnccc3s1)CCNC2 [Compound 176] |
| < 500 | 500 to 5000 | CC(=O)Nc1sc2c(c1-c1nc3cnccc3s1)CCNC2 [Compound 100, N-(3-(Thiazolo[4,5-c]pyridin-2-yl)-4,5,6,7-tetrahydrothieno[2,3-c]pyridin-2-yl)acetamide] |
| 500 to 5000 | < 500 | O=C(CCN1CCCCC12CNC2)Nc1sc2c(c1-c1nc3cnccc3s1)CCNC2 [Compound 183] |
| < 500 | < 500 | O=C(CCN[C@@H]1C[C@H]2CNC[C@H]2C1)Nc1sc2c(c1-c1nc3cnccc3s1)CCNC2 [Compound 153] |
| 500 to 5000 | < 500 | C[C@@H]1Cc2c(sc(NC(=O)CCN[C@@H]3C[C@H]4CNC[C@H]4C3)c2-c2nc3cnccc3s2)CN1 [Compound 250, N—((R)-5-methyl-3-(thiazolo[4,5-c]pyridin-2-yl)-4,5,6,7-tetrahydrothieno[2,3-c]pyridin-2-yl)-3-(((3aR,5s,6aS)-octahydrocyclopenta[c]pyrrol-5-yl)amino)propanamide] |

Source: US11753418B2, “Compounds for the modulation of Myc activity” (Syros Pharmaceuticals, Inc., priority 2015, dated 2023)
